The values that follow come from ChEMBL document CHEMBL2331237, “Amides of 4-hydroxy-8-methanesulfonylamino-quinoline-2-carboxylic acid as zinc-dependent inhibitors of Lp-PLA₂” (Bioorg Med Chem Lett, 2013).

Structures are written as SMILES. A value given as a limit tells only on which side of the number the result lay.

This assay concerns the target T1, Platelet-activating factor acetylhydrolase (Homo sapiens, UniProt Q13093).
T1 sequence (Q13093 whole entry): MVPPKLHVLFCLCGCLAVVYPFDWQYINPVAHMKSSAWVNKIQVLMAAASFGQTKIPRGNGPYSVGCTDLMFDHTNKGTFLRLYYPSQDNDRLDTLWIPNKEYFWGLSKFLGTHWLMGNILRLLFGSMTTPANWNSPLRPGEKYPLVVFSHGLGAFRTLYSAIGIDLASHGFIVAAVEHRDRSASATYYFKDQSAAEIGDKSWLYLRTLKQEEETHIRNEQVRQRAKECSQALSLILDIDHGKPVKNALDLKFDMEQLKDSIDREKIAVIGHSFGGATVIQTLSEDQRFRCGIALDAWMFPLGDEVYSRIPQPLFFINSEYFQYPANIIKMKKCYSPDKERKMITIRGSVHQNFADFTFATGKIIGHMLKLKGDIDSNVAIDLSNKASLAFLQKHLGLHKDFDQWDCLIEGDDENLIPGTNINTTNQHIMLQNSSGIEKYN
Kind of assay: Inhibition of human plasma Lp-PLA2 using 2- thio-PAF as substrate incubated for 20 mins prior to substrate addition measured after 1 hr.
For the molecule `COc1cc(NS(=O)(=O)c2ccc(C)cc2)c2ncccc2c1`, the IC50 is more than 100 µM. Consider `CCOC(=O)COc1cc(NS(=O)(=O)c2ccc(C)cc2)c2nc(C)ccc2c1`, for which the IC50 was more than 100 µM. The molecule `CS(=O)(=O)Nc1cccc2c(O)cc(C(=O)NC3CCCCCCCCCCCCC3)nc12` displayed an IC50 of more than 100 µM.

As usually defined, the IC50 is the concentration that inhibits the measured activity by half.
